Biological target: muscarinic receptor in the CNS
Test: not given
Conditions: first of three sites (high affinity); read-out: affinity of site labeled by ^3 H-Oxo; cited from earlier work

SMILES | Kd
C[N+](C)(C)CC#CCN1CCCC1=O [^3 H-Oxo, ^3 H-Oxotremorine-M] | 1.8 nM

Same assay, conditions: second of three sites (medium affinity); read-out: affinity of site labeled by ^3 H-Oxo; cited from earlier work

SMILES | Kd
C[N+](C)(C)CC#CCN1CCCC1=O [^3 H-Oxo, ^3 H-Oxotremorine-M] | 20 nM

Same assay, conditions: third of three sites; not determined under the present experimental conditions; read-out: affinity of site labeled by ^3 H-Oxo; cited from earlier work

SMILES | Kd
C[N+](C)(C)CC#CCN1CCCC1=O [^3 H-Oxo, ^3 H-Oxotremorine-M] | 3000 nM

Biological target: muscarinic acetylcholine receptors
Test: inhibition of specific binding of 3H-Oxotremorine-M (3H-Oxo) to rat cortex
Set-up: species or system rat (male Wistar)
Conditions: 3H-Oxotremorine 1.0 nM, 30 min, 25° C., pH 7.4
Excerpt: The pharmacological properties of the compounds of the invention can be illustrated by determining their capability to inhibit the specific binding of ^3 H-Oxotremorine-M (^3 H-Oxo). Birdsdall N. J. M., Hulme E. C., and Burgen A. S. V. (1980). "The Character of Muscarinic Receptors in Different Regions of the Rat Brain". Proc. Roy. Soc. London (Series B) 207,1.
^3 H-oxo labels muscarinic receptor in the CNS (with a preference for agonist domains of the receptors). Three different sites are labeled by ^3 H-Oxo. […] Using the present experimental conditions only the high and medium affinity sites are determined.
The inhibitory effects of compounds on ^3 H-oxo binding reflects the affinity for muscarinic acetylcholine receptors.
All preparations are performed at 0°-4° C. unless otherwise indicated. Fresh cortex (0.1-1 g) from male Wistar rats (150-250 g) is homogenized for 5-10 s in 10 mL […] Hepes pH: 7.4, with an Ultra-Turrax homogenizer. The homogenizer is rinsed with 10 mL of buffer and the combined suspension centrifuged for 15 min. at 40,000×g. The pellet is washed three times with buffer. In each step the pellet is homogenized as before in 2×10 mL of buffer and centrifuged for 10 min. at 40,000×g.
The final pellet is homogenized in 20 mM Hepes pH: 7.4 (100 mL per g of original tissue) and used for binding assay. Aliquots of 0.5 mL is added 25 μL of test solution and 25 μL of ^3 H-Oxotremorine (1.0 nM, final concentration) mixed and incubated for 30 min. at 25° C. Non-specific binding is determined in triplicate using arecoline (1 μg/mL, final concentration) as the test substance. After incubation samples are added 5 mL of ice-cold buffer and poured directly onto Whatman GF/C glass fiber filters under suction and immediately washed 2 times with 5 mL of ice-cold buffer. The amount of radioactivity on the filters are determined by conventional liquid scintillation counting. Specific binding is total binding minus non specific binding.
Test substances are dissolved in 10 mL water (if necessary heated on a steam-bath for less than 5 min.) at a concentration of 2.2 mg/mL. 25-75% inhibition of specific binding must be obtained before calculation of IC50. The test value will be given as IC50 (the concentration (nM) of the test substance which inhibits the specific binding of ^3 H-oxo by 50%). IC50 =(applied test substance concentration) x([…])nM where Co is specific binding in control assays and Cx is the specific binding in the test assay. (The calculations assume normal mass-action kinetics).

SMILES | IC50
FC(F)(F)c1ccc(CSc2nsnc2C2CC3CCC2NC3)cc1 (stereo not drawn) [Compound 22, EXO 2-Aza-6-(4-(((4-trifluoromethyl)phenyl)methylthio)-1,2,5-thiadiaz-3-yl)-bicyclo[2.2.2]octane] | 680 nM
FC(F)(F)c1ccc(COc2nsnc2C2CC3CCC2NC3)cc1 (stereo not drawn) [Compound 32, EXO 2-Aza-6-(4-((4-trifluoromethylphenyl)methoxy)-1,2,5-thiadiaz-3-yl)-bicyclo[2.2.2]octane] | 335 nM
CC(C)CCCSc1nsnc1C1CC2CCC1NC2 (stereo not drawn) [Compound 17, EXO 2-Aza-6-(4-((4-methylpentyl)thio)-1,2,5-thiadiaz-3-yl)-bicyclo[2.2.2]octane] | 612 nM
CCCCCCSc1nsnc1C1CC2CCC1NC2 (stereo not drawn) [Compound 27, EXO 2-Aza-6-(4-hexylthio-1,2,5-thiadiaz-3-yl)-bicyclo[2.2.2]octane] | 3 nM
CC(C)CCCSc1nsnc1C1CC2CCC1NC2 (stereo not drawn) [Compound 18, ENDO 2-Aza-6-(4-((4-methylpentyl)thio)-1,2,5-thiadiaz-3-yl)-bicyclo[2.2.2]octane] | 17 nM
CCCCCCOc1nsnc1C1CC2CCC1N(C)C2 (single isomer, unassigned) [Compound 7, ENDO 2-Aza-6-(4-hexyloxy-1,2,5-thiadiaz-3-yl)-2-methyl-bicyclo[2.2.2]octane] | 4.8 nM
CCCCCOc1nsnc1C1CC2CCC1NC2 (stereo not drawn) [Compound 31, EXO 2-aza-6-(4-pentoxy-1,2,5-thiadiaz-3-yl)-bicyclo[2.2.2]octane] | 161 nM
FC(F)(F)c1ccc(COc2nsnc2C2CC3CCC2NC3)cc1 (stereo not drawn) [Compound 33, EXO 2-Aza-6-(4-((4-trifluoromethylphenyl)methoxy)-1,2,5-thiadiaz-3-yl)-bicyclo[2.2.2]octane] | 208 nM
CCCCCCSc1nsnc1C1CC2CCC1NC2 (stereo not drawn) [Compound 28, EXO 2-Aza-6-(4-hexylthio-1,2,5-thiadiaz-3-yl)-bicyclo[2.2.2]octane] | 86 nM
FC(F)(F)CCCSc1nsnc1C1CC2CCC1NC2 (stereo not drawn) [Compound 20, ENDO 2-Aza-6-(4-((4,4,4-trifluorobutyl)thio)-1,2,5-thiadiaz-3-yl)-bicyclo[2.2.2]octane] | 4.8 nM
CCCCCCOc1nsnc1C1CC2CCC1N(C)C2 (single isomer, unassigned) [Compound 8, EXO 2-Aza-6-(4-hexyloxy-1,2,5-thiadiaz-3-yl)-2-methyl-bicyclo[2.2.2]octane] | 277 nM
CCCCCOc1nsnc1C1CC2CCC1NC2 (stereo not drawn) [Compound 30, ENDO 2-aza-6-(4-pentoxy-1,2,5-thiadiaz-3-yl)-bicyclo[2.2.2]octane] | 5.9 nM
N#Cc1ccc(CSc2nsnc2C2CC3CCC2NC3)s1 (stereo not drawn) [Compound 25, ENDO 2-Aza-6-(4-((5-cyanothien-2-yl)methylthio)-1,2,5-thiadiaz-3-yl)-bicyclo[2.2.2]octane] | 5.4 nM
N#Cc1ccc(CSc2nsnc2C2CC3CCC2NC3)s1 (stereo not drawn) [Compound 26, EXO 2-Aza-6-(4-((5-cyanothien-2-yl)methylthio)-1,2,5-thiadiaz-3-yl)-bicyclo[2.2.2]octane] | 31 nM

Source: patent US5834458A, “Heterocyclic compounds and their use” (Eli Lilly and Company, priority 1996, dated 1998)
